Legend:
[1] = target: NA (neuraminidase) of A/Yamagata/103/2024 (Influenza A virus, UniProt C3W5S3); type: biochemical
[2] = target: NA (neuraminidase) of A/Yamagata/333/2023 (Influenza A virus, UniProt C3W5S3)
[3] = system: recombinant A/WSN/33(H1N1) with PA I38N substitution; conditions: ref [3],[9]; cited from earlier work
[4] = system: recombinant A/Victoria/3/75(H3N2) with PA I38N substitution; conditions: ref [3],[9]; cited from earlier work

SMILES | IC50 [1] | IC50 [2] | fold reduction in baloxavir susceptibility conferred by PA I38N substitution [3] | fold reduction in baloxavir susceptibility conferred by PA I38N substitution [4]
CCC(CC)[C@H](NC(C)=O)[C@@H]1[C@H](O)[C@@H](C(=O)O)C[C@H]1N=C(N)N [Peramivir, peramivir] | 0.11 nM | 0.08 nM | – | –
O=C1c2c(O)c(=O)ccn2N([C@@H]2c3ccccc3SCc3c2ccc(F)c3F)[C@@H]2COCCN12 [Baloxavir, baloxavir acid] | – | – | 24 fold | 10 fold

Reference: publication PMC12044245 (Emerging Infectious Diseases, 2025)
